Where two headings read alike, the source gives them in different places.

The values that follow come from US9408813B2, “Small-molecule inhibitors of dengue virus proteases” (THE BOARD OF REGENTS OF THE UNIVERSITY OF TEXAS SYSTEM, priority 2013, dated 2016).

The target of this test is T1, DENV NS2B-NS3 protease (Dengue virus type 2, UniProt P29990).
T1 construct: plasmid construct CF40-Gly-NS3pro185; made in house; host or cells: E. coli
Nature of the test: NS2B-NS3 protease steady-state kinetic inhibition assay (Boc-GRR-AMC substrate, Dynafit global fit). It counts as biochemical, DEN2V (dengue virus serotype 2). As to conditions: 100 nM NS2B-NS3, cleavage buffer pH 9.5, 25° C., two inhibitor concentrations. The procedure:
The DEN2V protease (plasmid construct CF40-Gly-NS3pro185 (Li et al., The Journal of Biological Chemistry, 280, 28766-28774, 2005)) was expressed in E. coli largely following the previously described protocol (Li et al., The Journal of Biological Chemistry, 280, 28766-28774, 2005), although cell growth was continued for 6 hrs at 25° C. following addition of 0.4 mM IPTG (isopropyl-D-thiogalactopyranoside). Purification was as described previously (Li et al., The Journal of Biological Chemistry, 280, 28766-28774, 2005) using metal affinity chromatography. Purified, concentrated NS2B-NS3pro was stored at −80° C. in cleavage buffer (200 mM Tris pH 9.5, 20% glycerol). The activity of the dengue protease was not impacted by a freeze/thaw cycle (data not shown).
Small molecules identified by virtual screening as potential DEN2V protease inhibitors were tested for inhibition activity using NS2B-NS3 protease steady-state kinetic assays as described previously (Li et al., The Journal of Biological Chemistry, 280, 28766-28774, 2005). Briefly, compounds identified in virtual screening experiments were received from established chemical vendors and tested for solubility at 10 mM in DMSO and upon 100-fold dilution from DMSO into cleavage buffer (i.e., 100 μM final compound concentration in 1% DMSO). […] Sequential 10-fold serial dilutions were used to determine the limits of solubility in cleavage buffer as necessary.
Preliminary single-point inhibition assays (Li et al., The Journal of Biological Chemistry, 280, 28766-28774, 2005) were used to check the inhibition activity of compounds using 100 nM NS2B-NS3 and 100 μM substrate Boc-GRR-AMC in cleavage buffer for 30 minutes at 25° C. Fluorescence measurements (lem=465 nm, lex=380 nm) were performed in duplicate on a Fluorolog FL3-22 spectrofluorometer (Horiba Jobin Yvon) and corrected for compound absorption and emission. […] Two inhibitor concentrations were tested. Fluorescence measurements were recorded at 5 minutes intervals from 0 to 30 minutes; fluorescence intensities were converted to AMC product concentrations using calibration curves established with each compound concentration. Each kinetic study was performed in duplicate, and all experiments were repeated three times to ensure all measured parameters were reproducible in independent experiments. Initial velocities at each substrate concentration were calculated from linear curve fits of AMC production per time. The program Dynafit (Biokin, Watertown, Mass.) (Kuzmic, Anal. Biochem., 237, 260-273, 1996) was used to determine Michalen-Menten inhibition model and kinetic parameters that produced the best global fits to the measured velocity versus substrate kinetic data.
These compounds were advanced to detailed kinetic inhibition assays to determine mechanisms of inhibition and inhibition constants. All experiments were performed using two different inhibitor concentrations and a no inhibitor control. Kinetic parameters and inhibition constants were calculated using a generalized Michaelis-Menten model (FIG. 4) and global fitting to all collected velocity versus substrate concentration data (Table 1). […] Further study will be required to determine whether a particular mechanism of inhibition might be advantageous in regard to efficacy against virus replication and/or delay of escape mutants.

Setting [1] is: read-out: Inhibition constant Ki1 (competitive component, binding to enzyme).
Setting [2] is: read-out: Inhibition constant Ki3 (binding to ES2 complex).
The mark [3] stands for this setting: read-out: Inhibition constant Ki2 (binding to enzyme-substrate ES complex).
The mark [4] stands for this setting: Inhibition constant Ki1 (competitive component, binding to enzyme).

T1 sequence (P29990 1476-1653): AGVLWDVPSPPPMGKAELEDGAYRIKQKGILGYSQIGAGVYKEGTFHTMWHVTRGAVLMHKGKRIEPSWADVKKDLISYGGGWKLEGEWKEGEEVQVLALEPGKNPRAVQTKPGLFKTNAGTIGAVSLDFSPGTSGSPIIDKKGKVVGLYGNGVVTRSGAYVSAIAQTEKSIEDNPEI

In the case of `Cc1nn(-c2ccccc2)nc1C(=O)Nc1nnc(Sc2ccnc3cc(Cl)ccc23)s1` [ZINC08647752], the Ki by setting is: under setting [1], 60 µM; under setting [2], 14 µM.
With `c1ccc2c(-c3nnc(-c4ccc5nccnc5c4)o3)cccc2c1` [ZINC00156657], the Ki amounted to 95 µM under setting [1] and 45 µM under setting [3].
Regarding `Cc1ccc(S(=O)(=O)Nc2ccc(Cn3cnc(-c4nc(-c5cccc(C)c5)no4)c3)cc2)cc1` [ZINC32974777], the Ki reads like this: under setting [1], 106 µM; under setting [3], 21 µM.
Turning to `O=C1Cc2ccc(F)cc2C[C@@H]1C1=Cc2ccc(F)cc2CC1` [ZINC04321905], the Ki under setting [1] was found to be 85 µM.
Turning to `O=C1[C@H]2CSC3(C(=O)c4ccccc4C3=O)N2C(=O)[C@H]2CSC3(C(=O)c4ccccc4C3=O)N12` [ZINC03129319], the Ki under setting [4] worked out at 92 µM and the Ki (Inhibition constant Ki3 (binding to ES2 complex)) turned out to be 20 µM.
On to `NS(=O)(=O)c1cccc(-c2ccc([C@H]3Nc4ccccc4-c4nc5ccccc5n43)o2)c1` [ZINC01032664], for which the Ki under setting [3] is 56 µM.
For the compound `Cc1ccc(-n2ncc3c2CC(C)(C)C[C@@H]3NC(=O)c2cn(C)c3ccccc3c2=O)cc1` [ZINC12702527], the Ki is, setting by setting: under setting [1], 288 µM; under setting [3], 421 µM.
`Cn1c(=O)c2cc3ccccc3nc2c2c(=O)n(-c3ccccc3)c(=O)n(-c3ccccc3)c21` [ZINC01042004]: the Ki under setting [3] came to 28 µM.
`c1ccc(CSc2nnc3nc4c5ccccc5c5ccccc5c4nn23)cc1` [ZINC03120327]: the Ki runs as follows: under setting [4], 42 µM; (Inhibition constant Ki2 (binding to enzyme-substrate ES complex)) 21 µM.
In the case of `Cc1ccn2c(=O)cc(COc3cc(NC(=O)Nc4ccc5c(c4)OCCO5)ccc3C)nc2c1` [ZINC33068105], the Ki reads like this: under setting [1], 39 µM; under setting [3], 4 µM.
As to `O=C(NNC(=NS(=O)(=O)c1ccccc1)NNC(=O)c1cccc(Cl)c1)c1cccc(Cl)c1` [ZINC12339756], the Ki under setting [2] was determined as 64 µM.
With `O=C(Nc1cccc(-c2nnc(Cc3ccc4c(c3)OCO4)o2)c1)Nc1ccc2c(c1)CCC2` [ZINC21359030], the Ki under setting [3] is 4 µM.
